According to the supplement of paper PMC10307832:

Tests used:
Assay in all cases: relative viability (nuclei count vs DMSO), 5 days (fraction); higher = more cells survive
[1] = tested on: ABC-1
How it was run: (§1)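 Medians of duplicate plates are given as relative viability. That measure is the nuclei count in treated wells divided by the count in vehicle wells. Counts were taken on 4× images of lung cancer cell lines in 1536-well plates, 5 days after pin-tool dosing the day after seeding with one drug alone or a fixed anchor-drug dose plus five library-drug doses (not always all listed) in √10 steps.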

[2] = tested on: COR-L23
How it was run: as §1

[3] = tested on: ChaGo-K-1
How it was run: as §1

[4] = tested on: EPLC-272H
How it was run: as §1

[5] = tested on: HCC-15
How it was run: as §1

[6] = tested on: HCC-366
How it was run: as §1

[7] = tested on: HCC-44
How it was run: as §1

[8] = tested on: HCC-827
How it was run: as §1

[9] = tested on: LCLC-103H
How it was run: as §1

[10] = tested on: NCI-H1355
How it was run: as §1

[11] = tested on: NCI-H1734
How it was run: as §1

[12] = tested on: NCI-H1793
How it was run: as §1

[13] = tested on: NCI-H1944
How it was run: as §1

[14] = tested on: NCI-H2009
How it was run: as §1

[15] = tested on: NCI-H2023
How it was run: as §1

[16] = tested on: NCI-H2085
How it was run: as §1

[17] = tested on: NCI-H2228
How it was run: as §1

[18] = tested on: NCI-H2347
How it was run: as §1

[19] = tested on: NCI-H2405
How it was run: as §1

[20] = tested on: NCI-H3122
How it was run: as §1

[21] = tested on: PC-14
How it was run: as §1

[22] = tested on: SW 1573
How it was run: as §1

For `Cc1cn(-c2cc(NC(=O)c3ccc(C)c(Nc4nccc(-c5cccnc5)n4)c3)cc(C(F)(F)F)c2)cn1` [Nilotinib] + CS(=O)(=O)N1CCN(Cc2cc3nc(-c4cccc5[nH]ncc45)nc(N4CCOCC4)c3s2)CC1 [Pictilisib] (partner 1 µM), the relative viability ([1]; first compound 0.001 µM) was 0.758, the relative viability ([1]; first compound 0.003162 µM) was 0.697 and the relative viability ([1]; first compound 0.01 µM) was 0.788. It also gave a relative viability ([1]; first compound 0.03162 µM) of 0.619, a relative viability ([1]; first compound 0.1 µM) of 0.346 and a relative viability ([2]; first compound 0.001 µM) of 0.777. For the same compound, the relative viability ([2]; first compound 0.003162 µM) was 1.01, the relative viability ([2]; first compound 0.01 µM) was 1.4 and the relative viability ([2]; first compound 0.03162 µM) was 0.901. For the same compound, the relative viability ([2]; first compound 0.1 µM) was 0.607, the relative viability ([3]; first compound 0.001 µM) was 1.22 and the relative viability ([3]; first compound 0.003162 µM) was 0.581. The relative viability ([3]; first compound 0.01 µM) was 0.654, the relative viability ([3]; first compound 0.03162 µM) was 0.315 and the relative viability ([3]; first compound 0.1 µM) was 0.444. For the same compound, the relative viability ([4]; first compound 0.001 µM) was 0.273, the relative viability ([4]; first compound 0.003162 µM) was 0.308 and the relative viability ([4]; first compound 0.01 µM) was 0.258. For the same compound, the relative viability ([4]; first compound 0.03162 µM) was 0.338, the relative viability ([4]; first compound 0.1 µM) was 0.258 and the relative viability ([5]; first compound 0.001 µM) was 0.703. The relative viability ([5]; first compound 0.003162 µM) was 0.874, the relative viability ([5]; first compound 0.01 µM) was 0.843 and the relative viability ([5]; first compound 0.03162 µM) was 0.542. For the same compound, the relative viability ([5]; first compound 0.1 µM) was 0.301, the relative viability ([6]; first compound 0.001 µM) was 0.161 and the relative viability ([6]; first compound 0.01 µM) was 0.133. It also gave a relative viability ([6]; first compound 0.03162 µM) of 0.111, a relative viability ([6]; first compound 0.1 µM) of 0.137 and a relative viability ([7]; first compound 0.001 µM) of 0.607. For the same compound, the relative viability ([7]; first compound 0.003162 µM) was 0.743, the relative viability ([7]; first compound 0.01 µM) was 0.589 and the relative viability ([7]; first compound 0.03162 µM) was 0.517. The relative viability ([7]; first compound 0.1 µM) was 0.37, the relative viability ([8]; first compound 0.001 µM) was 0.685 and the relative viability ([8]; first compound 0.003162 µM) was 0.985. It also gave a relative viability ([8]; first compound 0.01 µM) of 1.15, a relative viability ([8]; first compound 0.03162 µM) of 0.829 and a relative viability ([8]; first compound 0.1 µM) of 0.965. For the same compound, the relative viability ([9]; first compound 0.001 µM) was 0.649, the relative viability ([9]; first compound 0.003162 µM) was 0.638 and the relative viability ([9]; first compound 0.03162 µM) was 0.755. The relative viability ([9]; first compound 0.1 µM) was 0.421, the relative viability ([10]; first compound 0.001 µM) was 0.399 and the relative viability ([10]; first compound 0.003162 µM) was 0.468. For the same compound, the relative viability ([10]; first compound 0.01 µM) was 0.371, the relative viability ([10]; first compound 0.03162 µM) was 0.421 and the relative viability ([10]; first compound 0.1 µM) was 0.19. The relative viability ([11]; first compound 0.001 µM) was 0.445, the relative viability ([11]; first compound 0.003162 µM) was 0.48 and the relative viability ([11]; first compound 0.01 µM) was 0.447. It also gave a relative viability ([11]; first compound 0.03162 µM) of 0.384, a relative viability ([11]; first compound 0.1 µM) of 0.236 and a relative viability ([12]; first compound 0.003162 µM) of 0.32. It also gave a relative viability ([12]; first compound 0.01 µM) of 0.31, a relative viability ([12]; first compound 0.03162 µM) of 0.31 and a relative viability ([12]; first compound 0.1 µM) of 0.235. For the same compound, the relative viability ([13]; first compound 0.001 µM) was 0.355, the relative viability ([13]; first compound 0.003162 µM) was 0.342 and the relative viability ([13]; first compound 0.01 µM) was 0.358. It also gave a relative viability ([13]; first compound 0.03162 µM) of 0.345, a relative viability ([13]; first compound 0.1 µM) of 0.234 and a relative viability ([14]; first compound 0.001 µM) of 0.79. For the same compound, the relative viability ([14]; first compound 0.003162 µM) was 0.913, the relative viability ([14]; first compound 0.01 µM) was 0.958 and the relative viability ([14]; first compound 0.03162 µM) was 0.655. For the same compound, the relative viability ([14]; first compound 0.1 µM) was 0.187, the relative viability ([15]; first compound 0.001 µM) was 0.225 and the relative viability ([15]; first compound 0.003162 µM) was 0.192. The relative viability ([15]; first compound 0.01 µM) was 0.226, the relative viability ([15]; first compound 0.03162 µM) was 0.221 and the relative viability ([15]; first compound 0.1 µM) was 0.101. The relative viability ([16]; first compound 0.001 µM) was 0.435, the relative viability ([16]; first compound 0.003162 µM) was 0.457 and the relative viability ([16]; first compound 0.01 µM) was 0.402. For the same compound, the relative viability ([16]; first compound 0.03162 µM) was 0.466, the relative viability ([16]; first compound 0.1 µM) was 0.405 and the relative viability ([17]; first compound 0.001 µM) was 0.27. For the same compound, the relative viability ([17]; first compound 0.003162 µM) was 0.402, the relative viability ([17]; first compound 0.01 µM) was 0.31 and the relative viability ([17]; first compound 0.03162 µM) was 0.356. It also gave a relative viability ([17]; first compound 0.1 µM) of 0.397, a relative viability ([18]; first compound 0.001 µM) of 0.644 and a relative viability ([18]; first compound 0.003162 µM) of 0.679. The relative viability ([18]; first compound 0.01 µM) was 0.717, the relative viability ([18]; first compound 0.03162 µM) was 0.635 and the relative viability ([18]; first compound 0.1 µM) was 0.401. The relative viability ([19]; first compound 0.001 µM) was 0.426, the relative viability ([19]; first compound 0.003162 µM) was 0.404 and the relative viability ([19]; first compound 0.01 µM) was 0.315. For the same compound, the relative viability ([19]; first compound 0.03162 µM) was 0.296, the relative viability ([19]; first compound 0.1 µM) was 0.345 and the relative viability ([20]; first compound 0.001 µM) was 0.666. The relative viability ([20]; first compound 0.003162 µM) was 0.846, the relative viability ([20]; first compound 0.01 µM) was 0.808 and the relative viability ([20]; first compound 0.03162 µM) was 0.473. For the same compound, the relative viability ([20]; first compound 0.1 µM) was 0.436, the relative viability ([21]; first compound 0.003162 µM) was 0.83 and the relative viability ([21]; first compound 0.01 µM) was 0.841. For the same compound, the relative viability ([21]; first compound 0.03162 µM) was 0.503, the relative viability ([21]; first compound 0.1 µM) was 0.664 and the relative viability ([22]; first compound 0.001 µM) was 0.486. The relative viability ([22]; first compound 0.003162 µM) was 0.652, the relative viability ([22]; first compound 0.01 µM) was 0.5 and the relative viability ([22]; first compound 0.03162 µM) was 0.427. It also gave a relative viability ([22]; first compound 0.1 µM) of 0.588.
